Earlier results in patent publication US20240352228A1, “NOVEL FLAME RETARDANT” (Chemische Fabrik Budenheim KG, priority 2021, published 2024).

Details: general statement in description, no method given

SMILES: Nc1nc(N)nc(N)n1 [melamine, Melamine]
- decomposition temperature: > 350 °C
